In US20240148821A1, “PHARMACEUTICAL USE OF CYCLIC PEPTIDE COMPOUND” (CHUGAI SEIYAKU KABUSHIKI KAISHA, priority 2021, published 2024):
Numbered stars: 1 amine (or outer) side, 2 acyl side, 3 side chain; on linkers, the order of the positions; unused ones are H or OH. Bridge positions count the residues as written; N and C are the ends. Square brackets hold non-standard residues; d marks the D form. Peptide text beside a SMILES is read from it. * marks the point of attachment. NMeAbu(3,3-F2-piperidino) = CN[C@@H](CCN1CCCC(F)(F)C1)C(=O)O; hPhe(3-Cl-4-CF3) = N[C@@H](CCc1ccc(C(F)(F)F)c(Cl)c1)C(=O)O; hPhe(3-F,4-CF3) = N[C@@H](CCc1ccc(C(F)(F)F)c(F)c1)C(=O)O; NMePhe(3-Br) = CN[C@@H](Cc1cccc(Br)c1)C(=O)O; NMePhe(4-Me) = CN[C@@H](Cc1ccc(C)cc1)C(=O)O; NMePhe(4-F) = CN[C@@H](Cc1ccc(F)cc1)C(=O)O; hPhe(4-Cl) = N[C@@H](CCc1ccc(Cl)cc1)C(=O)O; NMedβ3hAla = C[C@H](CC(=O)[*:2])N(C)[*:1]; Pro(4,4-F2) = O=C(O)[C@@H]1CC(F)(F)CN1; NMeAla(cPr) = CN[C@@H](CC1CC1)C(=O)O; NMeCha = CN[C@@H](CC1CCCCC1)C(=O)O; NMeChg = CN[C@H](C(=O)O)C1CCCCC1; NMeF = CN[C@@H](Cc1ccccc1)C(=O)O; NMeI = CC[C@H](C)[C@H](NC)C(=O)O; NMeD = CN[C@@H](CC(=O)O)C(=O)O; NMeL = CN[C@@H](CC(C)C)C(=O)O; Ahp(2) = CCCCC[C@H](N)C(=O)O; Chg = N[C@H](C(=O)O)C1CCCCC1; NMeNva = CCC[C@H](NC)C(=O)O; NMeV = CN[C@H](C(=O)O)C(C)C; d(β3hA) = C[C@@H](N)CC(=O)O; Pip = O=C(O)[C@@H]1CCCCN1; NMeA = CN[C@@H](C)C(=O)O; Piperidide = C1CCN(*)CC1; Pra = C#CC[C@H](N)C(=O)O; Pyrrolidide = C1CCN(*)C1; dNMeA = CN[C@H](C)C(=O)O; Ac5c = NC1(C(=O)O)CCCC1; Aze = O=C(O)[C@@H]1CCN1; Thp = NC1(C(=O)O)CCOCC1; Sar = CNCC(=O)O

What follows are compounds tested on Human pancreatic cancer cell line AsPC-1 (G12D mutation Kras) (assay: AsPC-1 cell growth inhibition (AsPC-1 CGI)). Conditions: read-out: AsPC-1 cell growth inhibition, 50% growth inhibitory concentration (IC50 value); 96 hours, CellTiter-Glo, values classified in ranges.
Assay type: cell-based
Method: Test compounds were serially dilated with dimethyl sulfoxide, and 200 nL was then dispensed to a U-bottom 96-well plate using Labcyte Echo. […] The cell suspension was dispensed to a. plate containing a test compound at 100 μL per well and incubated at 37° C. in a 5% carbon dioxide gas incubator. 96 hours later, 80 μL of CellTiter-Glo (Promega) was added to each well and fluorescence was measured.

| Structure (SMILES) | IC50 [nM] |
| --- | --- |
| CC[C@H](C)[C@@H]1NC(=O)[C@H](C)N(C)C(=O)C[C@@H](C(=O)N2CCCCC2)N(C)C(=O)[C@H](C(C)C)N(C)C(=O)C2(CCCC2)NC(=O)[C@@H]2CCCN2C(=O)[C@H](CCc2ccc(C(F)(F)F)c(Cl)c2)NC(=O)[C@H]2CCCN2C(=O)[C@H](Cc2ccc(F)cc2)N(C)C(=O)[C@@H]2CCCN2C(=O)CN(C)C1=O [Compound 1725] ([NMeA]I[Sar]P[NMePhe(4-F)][dP][hPhe(3-Cl-4-CF3)]P[Ac5c][NMeV][NMeD]-Piperidide; lactam N-11) | > 500 |
| C#CC[C@@H]1NC(=O)[C@H](CC(C)C)N(C)C(=O)C[C@@H](C(=O)N2CCCCC2)N(C)C(=O)[C@H](C2CCCCC2)N(C)C(=O)C2(CCCC2)NC(=O)[C@@H]2CCCN2C(=O)[C@H](CCc2ccc(C(F)(F)F)c(Cl)c2)NC(=O)CN(C)C(=O)[C@H](CC2CCCCC2)N(C)C(=O)CN(C)C(=O)CN(C)C1=O [Compound 716] ([NMeL][Pra][Sar][Sar][NMeCha][Sar][hPhe(3-Cl-4-CF3)]P[Ac5c][NMeChg][NMeD]-Piperidide; lactam N-11) | > 500 |
| CC[C@H](C)[C@@H]1NC(=O)[C@H](CC(C)C)N(C)C(=O)C[C@@H](C)N(C)C(=O)[C@H](CC(C)C)N(C)C(=O)C2(CCOCC2)NC(=O)[C@@H]2CCCN2C(=O)[C@H](CCc2ccc(C(F)(F)F)c(Cl)c2)NC(=O)CN(C)C(=O)[C@H](CC2CCCCC2)N(C)C(=O)CN(C)C(=O)CN(C)C1=O [Compound 742] (cyclo(I[Sar][Sar][NMeCha][Sar][hPhe(3-Cl-4-CF3)]P[Thp][NMeL][NMedβ3hAla][NMeL])) | > 500 |
| CC[C@H](C)[C@@H]1NC(=O)[C@H](C)N(C)C(=O)C[C@@H](C)NC(=O)[C@H](C(C)C)N(C)C(=O)C2(CCCC2)NC(=O)[C@@H]2CCCN2C(=O)[C@H](CCc2ccc(C(F)(F)F)c(Cl)c2)NC(=O)CN(C)C(=O)[C@H](Cc2ccccc2)N(C)C(=O)[C@@H]2CCCN2C(=O)CN(C)C1=O [Compound 1778] (cyclo([Ac5c][NMeV][d(β3hA)][NMeA]I[Sar]P[NMeF][Sar][hPhe(3-Cl-4-CF3)]P)) | > 500 |
| CC[C@H](C)[C@@H]1NC(=O)[C@H](CC(C)C)N(C)C(=O)C[C@@H](C(=O)N(C)C)N(C)C(=O)[C@H]([C@@H](C)CC)N(C)C(=O)[C@H](C(C)C)NC(=O)[C@H](CCN2CCCC(F)(F)C2)N(C)C(=O)[C@H](CCc2ccc(C(F)(F)F)c(Cl)c2)NC(=O)CN(C)C(=O)[C@H](Cc2ccc(C)cc2)N(C)C(=O)[C@@H]2CCN2C(=O)[C@H](C)N(C)C1=O [Compound 379] ([NMeL]I[NMeA][Aze][NMePhe(4-Me)][Sar][hPhe(3-Cl-4-CF3)][NMeAbu(3,3-F2-piperidino)]V[NMeI][NMeD]-NMe2; lactam N-11) | > 500 |
| CCC[C@H]1C(=O)N[C@@H]([C@@H](C)CC)C(=O)N(C)CC(=O)N(C)CC(=O)N(C)[C@@H](CC2CCCCC2)C(=O)N(C)CC(=O)N[C@@H](CCc2ccc(C(F)(F)F)c(Cl)c2)C(=O)N2CC(F)(F)C[C@H]2C(=O)NC2(CCCC2)C(=O)N(C)[C@@H](C2CCCCC2)C(=O)N(C)[C@H](C(=O)N2CCCC2)CC(=O)N1C [Compound 1232] ([NMeNva]I[Sar][Sar][NMeCha][Sar][hPhe(3-Cl-4-CF3)][Pro(4,4-F2)][Ac5c][NMeChg][NMeD]-Pyrrolidide; lactam N-11) | ≤ 20 |
| CC[C@H](C)[C@@H]1NC(=O)[C@@H]2CCCCN2C(=O)C[C@@H](C(=O)N2CCCCC2)N(C)C(=O)[C@H](C(C)C)N(C)C(=O)C2(CCCC2)NC(=O)[C@@H]2CCCN2C(=O)[C@H](CCc2ccc(Cl)cc2)NC(=O)CN(C)C(=O)[C@H](CC2CCCCC2)N(C)C(=O)CN(C)C(=O)CN(C)C1=O [Compound 841] ([Pip]I[Sar][Sar][NMeCha][Sar][hPhe(4-Cl)]P[Ac5c][NMeV][NMeD]-Piperidide; lactam N-11) | > 500 |
| CC[C@H](C)[C@@H]1NC(=O)[C@H](C)N(C)C(=O)C[C@@H](C(=O)N2CCCCC2)N(C)C(=O)[C@H](C(C)C)N(C)C(=O)C2(CCCC2)NC(=O)[C@@H]2CCCN2C(=O)[C@H](CCc2ccc(C(F)(F)F)c(Cl)c2)NC(=O)[C@@H](C)N(C)C(=O)[C@H](CC2CCCCC2)N(C)C(=O)CN(C)C(=O)CN(C)C1=O [Compound 380] ([NMeA]I[Sar][Sar][NMeCha][dNMeA][hPhe(3-Cl-4-CF3)]P[Ac5c][NMeV][NMeD]-Piperidide; lactam N-11) | > 500 |
| CC(C)C[C@H]1C(=O)N[C@@H](C2CCCCC2)C(=O)N(C)CC(=O)N(C)CC(=O)N(C)[C@@H](CC2CCCCC2)C(=O)N(C)CC(=O)N[C@@H](CCc2ccc(C(F)(F)F)c(F)c2)C(=O)N2CCC[C@H]2C(=O)NC2(CCCC2)C(=O)N(C)[C@@H](CC(C)C)C(=O)N[C@H](C)CC(=O)N1C [Compound 1527] (cyclo([Ac5c][NMeL][d(β3hA)][NMeL][Chg][Sar][Sar][NMeCha][Sar][hPhe(3-F,4-CF3)]P)) | > 500 |
| CC[C@H](C)[C@@H]1NC(=O)[C@H](CC(C)C)N(C)C(=O)C[C@@H](C(=O)N2CCCCC2)N(C)C(=O)[C@H](C2CCCCC2)N(C)C(=O)[C@@H](C(C)C)NC(=O)[C@@H]2CCCN2C(=O)[C@H](CCc2ccc(C(F)(F)F)c(Cl)c2)NC(=O)CN(C)C(=O)[C@H](CC2CCCCC2)N(C)C(=O)CN(C)C(=O)CN(C)C1=O [Compound 1138] ([NMeL]I[Sar][Sar][NMeCha][Sar][hPhe(3-Cl-4-CF3)]P[dV][NMeChg][NMeD]-Piperidide; lactam N-11) | > 500 |
| CCCCC[C@@H]1NC(=O)[C@H](CC(C)C)N(C)C(=O)C[C@@H](C(=O)N2CCCCC2)N(C)C(=O)[C@H](C2CCCCC2)N(C)C(=O)C2(CCCC2)NC(=O)[C@@H]2CCCN2C(=O)[C@H](CCc2ccc(C(F)(F)F)c(Cl)c2)NC(=O)CN(C)C(=O)[C@H](CC2CCCCC2)N(C)C(=O)CN(C)C(=O)CN(C)C1=O [Compound 1692] ([NMeL][Ahp(2)][Sar][Sar][NMeCha][Sar][hPhe(3-Cl-4-CF3)]P[Ac5c][NMeChg][NMeD]-Piperidide; lactam N-11) | > 500 |
| CC[C@H](C)[C@@H]1NC(=O)[C@H](CC(C)C)N(C)C(=O)C[C@@H](C)NC(=O)[C@H](C(C)C)N(C)C(=O)C2(CCCC2)NC(=O)[C@@H]2CCCN2C(=O)[C@H](CCc2ccc(C(F)(F)F)c(Cl)c2)NC(=O)CN(C)C(=O)[C@H](Cc2cccc(Br)c2)N(C)C(=O)CN(C)C(=O)CN(C)C1=O [Compound 1587] (cyclo([Ac5c][NMeV][d(β3hA)][NMeL]I[Sar][Sar][NMePhe(3-Br)][Sar][hPhe(3-Cl-4-CF3)]P)) | > 500 |
| CC[C@H](C)[C@@H]1NC(=O)[C@H](C)N(C)C(=O)C[C@@H](C)NC(=O)[C@H](C(C)C)N(C)C(=O)C2(CCCC2)NC(=O)[C@@H]2CCCN2C(=O)[C@H](CCc2ccc(C(F)(F)F)c(Cl)c2)NC(=O)[C@H]2CCCN2C(=O)[C@H](Cc2ccc(F)cc2)N(C)C(=O)[C@@H]2CCCN2C(=O)CN(C)C1=O [Compound 1667] (cyclo([Ac5c][NMeV][d(β3hA)][NMeA]I[Sar]P[NMePhe(4-F)][dP][hPhe(3-Cl-4-CF3)]P)) | > 500 |
| CC[C@H](C)[C@@H]1NC(=O)[C@H](CC(C)C)N(C)C(=O)C[C@@H](C(=O)N2CCCCC2)N(C)C(=O)[C@H](C(C)C)N(C)C(=O)C2(CCCC2)NC(=O)[C@@H]2CCCN2C(=O)[C@H](CCc2ccc(C(F)(F)F)c(Cl)c2)NC(=O)CN(C)C(=O)[C@H](CC2CC2)N(C)C(=O)CN(C)C(=O)CN(C)C1=O [Compound 325] ([NMeL]I[Sar][Sar][NMeAla(cPr)][Sar][hPhe(3-Cl-4-CF3)]P[Ac5c][NMeV][NMeD]-Piperidide; lactam N-11) | > 500 |
